Results reported in US20040029965A1, “Formulations for reducing or eliminating toxicity of enviromental hormones containing ursodeoxycholic acid” (priority 2000, published 2004).

Key:
C57B1/6J mice [1] = assay: Water uptake of mice after a single subcutaneous injection of TCDD; format: in vivo; design: unit not given here
Protocol: (§1) Male C57B1/6J mice of 5 weeks old having the average weight of 18-22 g which had been bred in CRJ (Charles River in Japan) were purchased and used in this example as experimental animals. Those mice were acclimated under the constant breeding condition, i.e. the temperature of 24±1° C., the humidity of 60±10% and the light and darkness cycle of 12 hours, for one week and thereafter, utilized in the experiment.
The Experimental animals were supplied with Purina powdered feed (purchased from Hae Eun Trade) and supplied with water ad libitum. All the animals were weighed twice a week during experimentation.
(§2) 2,3,7,8-tetrachlorodibenzo-p-dioxin (TCDD) dissolved in toluene (purity of 95% or more as a result of gas chromatography analysis), manufactured by Chem. Services Inc. in USA, was volatilized with nitrogen to obtain powder. The obtained powder was dissolved in a mixed solvent containing acetone and corn oil with a volume ratio of 1:6. The resulting solution each containing 110, 27.5 and 6.9 μg/kg of TCDD was subcutaneously injected to mice at a volume of 5 ml per body weight. […] The mice were supplied with the feed from 10 days before (pre-administration) to 60 days after administration of TCDD (post-administration).
(§3) The results are expressed as Mean±Standard Deviation values. For statistical analysis of the body weight, feed and water uptake, biochemical findings, hematological findings and the weight of organ in an acute toxicity test, verification was performed by one way analysis of variance (ANOVA) in case of equal distribution. In case significance was recognized in ANOVA, the Student's t-test was performed in the levels of p<0.05 and p<0.01.

C57B1/6J mice [2] = assay: Organ weights (liver, kidneys, testes, epididymides) of mice after a single subcutaneous injection of TCDD; format: in vivo
Protocol: as §1, §2
Upon completion of the experiment for 60 days, the experimental animals were fasted for 24 hours and anesthetized with ether. Then, they were abdominally incised and blood was gathered from abdominal vena cava. They were sacrificed by the release of blood. Liver, kidneys, testes and epididymides were extracted and all the extracted organs were weighed. Only the testes were separately kept and observed under optical and electron microscopes. For biochemical finding test, serum was separated from blood with a centrifuge and the separated serum was analyzed with an automated blood biochemical analyzer, Dimension (Dupont, USA). Blood was put to another blood gathering bottle and then, analyzed with an automated blood cell analyzer, Celldyn (Abbott, USA).
as §3
The organs, i.e. liver, kidneys, testes and epididymides, were weighed and the results are shown in the following.

Clc1cc2c(cc1Cl)Oc1cc(Cl)c(Cl)cc1O2 [TCDD, 2,3,7,8-tetrachlorodibenzo-p-dioxin]
water uptake (C57B1/6J mice [1]; TCDD 6.9 μg/kg alone, 10 days): 4.23 ± 0.52
water uptake (C57B1/6J mice [1]; TCDD 6.9 μg/kg alone, 20 days): 4.08 ± 0.72
water uptake (C57B1/6J mice [1]; TCDD 6.9 μg/kg alone, 30 days): 4.70 ± 0.42
water uptake (C57B1/6J mice [1]; TCDD 6.9 μg/kg alone, 40 days): 4.30 ± 0.42
water uptake (C57B1/6J mice [1]; TCDD 6.9 μg/kg alone, 50 days): 4.72 ± 0.39
water uptake (C57B1/6J mice [1]; TCDD 6.9 μg/kg alone, 60 days): 4.88 ± 0.17
water uptake (C57B1/6J mice [1]; TCDD 27.5 μg/kg alone, 10 days): 3.38 ± 0.75
water uptake (C57B1/6J mice [1]; TCDD 27.5 μg/kg alone, 20 days): 3.58 ± 0.14
water uptake (C57B1/6J mice [1]; TCDD 27.5 μg/kg alone, 30 days): 3.10 ± 0.14
water uptake (C57B1/6J mice [1]; TCDD 27.5 μg/kg alone, 40 days): 3.10 ± 0.14
water uptake (C57B1/6J mice [1]; TCDD 27.5 μg/kg alone, 50 days): 2.89 ± 0.63
water uptake (C57B1/6J mice [1]; TCDD 27.5 μg/kg alone, 60 days): 3.19 ± 0.21
water uptake (C57B1/6J mice [1]; TCDD 110.0 μg/kg alone, 10 days): 3.27 ± 0.78
water uptake (C57B1/6J mice [1]; TCDD 110.0 μg/kg alone, 20 days): 4.00 ± 0.66
water uptake (C57B1/6J mice [1]; TCDD 110.0 μg/kg alone, 30 days): 4.70 ± 0.42
Left epididymis Relative weight (C57B1/6J mice [2]; TCDD 6.9 μg/kg alone): 0.101 ± 0.012%
Left epididymis Weight (C57B1/6J mice [2]; TCDD 6.9 μg/kg alone): 0.023 ± 0.005 g
Left kidney Relative weight (C57B1/6J mice [2]; TCDD 6.9 μg/kg alone): 0.508 ± 0.050%
Left kidney Weight (C57B1/6J mice [2]; TCDD 6.9 μg/kg alone): 0.115 ± 0.018 g
Left testis Relative weight (C57B1/6J mice [2]; TCDD 6.9 μg/kg alone): 0.296 ± 0.030%
Left testis Weight (C57B1/6J mice [2]; TCDD 6.9 μg/kg alone): 0.067 ± 0.011 g
Liver Relative weight (C57B1/6J mice [2]; TCDD 6.9 μg/kg alone): 4.092%
Liver Weight (C57B1/6J mice [2]; TCDD 6.9 μg/kg alone): 0.935 ± 0.173 g
Right epididymis Relative weight (C57B1/6J mice [2]; TCDD 6.9 μg/kg alone): 0.110 ± 0.027%
Right epididymis Weight (C57B1/6J mice [2]; TCDD 6.9 μg/kg alone): 0.025 ± 0.007 g
Right kidney Relative weight (C57B1/6J mice [2]; TCDD 6.9 μg/kg alone): 0.513 ± 0.066%
Right kidney Weight (C57B1/6J mice [2]; TCDD 6.9 μg/kg alone): 0.117 ± 0.022 g
Right testis Relative weight (C57B1/6J mice [2]; TCDD 6.9 μg/kg alone): 0.285 ± 0.035%
Right testis Weight (C57B1/6J mice [2]; TCDD 6.9 μg/kg alone): 0.65 ± 0.010 g
Left epididymis Relative weight (C57B1/6J mice [2]; TCDD 27.5 μg/kg alone): 0.124 ± 0.024 %
Left epididymis Weight (C57B1/6J mice [2]; TCDD 27.5 μg/kg alone): 0.021 ± 0.006 g
Left kidney Relative weight (C57B1/6J mice [2]; TCDD 27.5 μg/kg alone): 0.625 ± 0.037 %
Left kidney Weight (C57B1/6J mice [2]; TCDD 27.5 μg/kg alone): 0.101 ± 0.012 g
Left testis Relative weight (C57B1/6J mice [2]; TCDD 27.5 μg/kg alone): 0.356 ± 0.051 %
Left testis Weight (C57B1/6J mice [2]; TCDD 27.5 μg/kg alone): 0.058 ± 0.014 g
Liver Relative weight (C57B1/6J mice [2]; TCDD 27.5 μg/kg alone): 4.506%
Liver Weight (C57B1/6J mice [2]; TCDD 27.5 μg/kg alone): 0.734 ± 0.151 g
Right epididymis Relative weight (C57B1/6J mice [2]; TCDD 27.5 μg/kg alone): 0.129 ± 0.027 %
Right epididymis Weight (C57B1/6J mice [2]; TCDD 27.5 μg/kg alone): 0.021 ± 0.006 g
Right kidney Relative weight (C57B1/6J mice [2]; TCDD 27.5 μg/kg alone): 0.571 ± 0.030 %
Right kidney Weight (C57B1/6J mice [2]; TCDD 27.5 μg/kg alone): 0.092 ± 0.012 g
Right testis Relative weight (C57B1/6J mice [2]; TCDD 27.5 μg/kg alone): 0.352 ± 0.059 %
Right testis Weight (C57B1/6J mice [2]; TCDD 27.5 μg/kg alone): 0.058 ± 0.015 g
